Data: PubChem BioAssay (NCI)
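Five compound concentrations were applied to cells in 96-well plates for 48 hours; endpoints were derived by simple linear interpolation of the resulting dose-response curve. TGI denotes the concentration required for complete inhibition of growth.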

What was measured:
Assay in all cases: NCI anticancer screen, dose series, 48 h
[1] = test system: HS 578T breast
[2] = test system: NCI/ADR-RES ovarian
[3] = test system: TK-10 renal
[4] = test system: SR leukemia
[5] = test system: RPMI-8226 leukemia
[6] = test system: ACHN renal
[7] = test system: SNB-75 CNS
[8] = test system: HCT-15 colon
[9] = test system: SF-539 CNS
[10] = test system: HCT-116 colon
[11] = test system: NCI-H460 lung
[12] = test system: HOP-62 NSCLC
[13] = test system: OVCAR-4 ovarian
[14] = test system: OVCAR-3 ovarian
[15] = test system: UACC-257 melanoma
[16] = test system: HT29 colon
[17] = test system: MALME-3M melanoma
[18] = test system: SK-MEL-2 melanoma
[19] = test system: SK-MEL-5 melanoma
[20] = test system: EKVX NSCLC

Structure (SMILES)	TGI [1] [µM]	TGI [2] [µM]	TGI [3] [µM]	TGI [4] [µM]	TGI [5] [µM]	TGI [6] [µM]	TGI [7] [µM]	TGI [8] [µM]	TGI [9] [µM]	TGI [10] [µM]	TGI [11] [µM]	TGI [12] [µM]	TGI [13] [µM]	TGI [14] [µM]	TGI [15] [µM]	TGI [16] [µM]	TGI [17] [µM]	TGI [18] [µM]	TGI [19] [µM]	TGI [20] [µM]
COc1ccc(/C=C2\N=C(c3ccccc3)OC2=O)cc1OC(C)=O	> 100	> 100	> 100	45	> 100	> 100	> 100	> 100	> 100	> 100	> 100	> 100	> 100	> 100	> 100	> 100	68.6	83.5	> 100	
CCOC(=O)CC(=O)CSc1c(-c2ccccc2)c(=O)n(-c2ccccc2)c(=S)n1-c1ccccc1	> 100	> 100	> 100	> 100		> 100	> 100	> 100	> 100	> 100	> 100	> 100	> 100	> 100	> 100	> 100	> 100			> 100
Nc1c(Br)cc(-c2nc3ccccc3s2)cc1Br	> 100	> 100	> 100	> 100		> 100	> 100	> 100	> 100	> 100	> 100	> 100		> 100	> 100	> 100	> 100	> 100	> 100	> 100
O=c1c2cc(S(=O)(=O)Nc3ccc(Cl)cc3Cl)ccc2ncn1NS(=O)(=O)c1cccc2ccccc12	> 100	> 100	> 100	70.6	> 100	> 100	> 100	> 100	> 100	> 100	> 100	> 100	> 100	> 100	> 100	> 100	> 100	> 100		> 100
O=S(=O)(Oc1ccc2ccccc2c1-c1c(OS(=O)(=O)C(F)(F)F)ccc2ccccc12)C(F)(F)F	> 100	> 100		> 100	> 100	> 100	> 100	> 100	> 100	> 100	> 100	> 100	> 100	> 100	8.3	> 100	> 100	> 100	> 100	> 100
O=C1N(CN2CCOCC2)CN(CN2CCOCC2)C(=O)N1Cc1ccc(CN2C(=O)N(CN3CCOCC3)CN(CN3CCOCC3)C2=O)cc1	> 100	> 100	> 100	> 100	89.5	> 100	> 100	> 100	> 100	> 100	> 100	> 100	> 100	> 100	> 100	> 100		39.8	> 100	> 100
Cc1ccc(S(=O)(=O)N/N=C2\CC(C)OC3=C2CCCCCC3)cc1 (configuration not stated)	47	44.7	37.2	60.4	82.5	32.8	52.4		38.9	30.4	> 100	35.1	35.6	36	36.6	34.9	39.5		31.9	30.4
O=c1oc2c/c(=C\c3ccccn3)c(=O)c3cccc1c3-2	> 100	> 100	> 100	> 100	> 100	> 100		> 100	57.4	> 100	> 100	39.2	> 100	39.4	> 100	> 100	> 100		> 100	> 100
COc1ccc2c(c1)CCc1c-2n(CCN2CCOCC2)c2ccc(OC)cc12	> 100	> 100	> 100	34.8	> 100	> 100	> 100	> 100	> 100	> 100	> 100	> 100	> 100	> 100	> 100	53.6	> 100	> 100	> 100	
CSc1ccc(/C=C2\N=C(c3ccccc3)N(/N=C3\C(=O)Nc4ccccc43)C2=O)cc1	> 100	> 100	> 100	> 100		> 100	> 100	> 100	> 100	> 100	> 100	> 100	> 100	> 100	> 100	> 100	> 100	> 100	> 100	> 100
COC(=O)N/N=C(\c1ccccc1)c1ccc(OC)cc1	> 100	> 100	> 100	> 100	> 100		> 100	> 100	> 100	> 100	> 100		> 100	> 100	> 100	> 100	> 100	> 100	> 100	> 100
N=c1oc2ccc(Cl)cc2cc1C(N)=O	63.9	> 100		> 100	> 100	> 100	> 100	69.2	> 100	61.7	> 100		85.9	64.9	> 100	> 100	37.1	31.8	47	
COC(=O)/C=C(\C)CC/C=C(\C)CCC(O)C(C)(C)O (configuration not stated)	98.5	52.5	> 100	44.6		75	> 100	48	35.9	44.9	37.8	78	> 100	65.3	> 100	> 100	41.5	36.3	33.4	> 100
NS(=O)(=O)c1nnc(NS(=O)(=O)c2ccc(Cl)cc2)s1	> 100	> 100	> 100	> 100	> 100	> 100		> 100		> 100	> 100	> 100	> 100	> 100	> 100	> 100	> 100	> 100	> 100	> 100
NCCNCCCNC(=O)c1cc(-c2ccccc2)nc2ccccc12	> 100	> 100	> 100	82.3	> 100	> 100		> 100	36.7	> 100	> 100	> 100		> 100	51.5	> 100	30.8	42.7	30.5	> 100
CC(=O)N(CCCCNC(=O)C(F)(F)F)CCCNC(=O)C(F)(F)F	> 100	> 100	> 100	> 100	> 100	> 100	> 100	> 100	> 100	> 100	> 100	> 100	> 100	> 100	> 100	> 100		> 100	> 100	> 100
O=C(NNC(=O)c1ccccc1O)c1ccco1	> 100	> 100	> 100	> 100	> 100		> 100	> 100	> 100	> 100	> 100	> 100	> 100	> 100	> 100	> 100	> 100	> 100	> 100	> 100
N=c1oc2ccccc2cc1C(=O)Nc1nccs1	> 100	> 100	> 50.7	47.7	50.5	26.8	99	> 100		> 100	> 76.5	64.7	> 74.2	43.3	> 95.3	> 100	> 100	65.4	> 100	> 79.5
Cc1ccc(/C=C2\NC(=S)N(CN3CCCCC3)C2=O)cc1	> 100	> 100	> 100	> 100	> 100	> 100	> 100	> 100		> 100		> 100	> 100	> 100		72.7	> 100	> 100	> 100	> 100
CCCCc1ccc(Nc2nc(Cl)c3ncn(C4CC(Oc5ccc(C)cc5)C(COc5ccc(C)cc5)O4)c3n2)cc1 (configuration not stated)	> 100	> 100	> 100	> 100	> 100	> 100	> 100	> 100	> 100	> 100		> 100		> 100	> 100	> 100	> 100	> 100	> 100	> 100
